Assay results from article PMC6385358, “Discovery of ((1,2,4-oxadiazol-5-yl)pyrrolidin-3-yl)ureidyl derivatives as selective non-steroidal agonists of the G-protein coupled bile acid receptor-1” (Scientific Reports, 2019).

Columns and labels:
Assay type in all cases: cell-based
Details in all cases: 10 μM
LXRβ = target: T1, LXRβ (Homo sapiens, UniProt P55055); test: Luciferase reporter specificity assay versus LXRβ on HepG2 cells
T1 construct: host or cells: HepG2
T1 sequence (P55055 1-460): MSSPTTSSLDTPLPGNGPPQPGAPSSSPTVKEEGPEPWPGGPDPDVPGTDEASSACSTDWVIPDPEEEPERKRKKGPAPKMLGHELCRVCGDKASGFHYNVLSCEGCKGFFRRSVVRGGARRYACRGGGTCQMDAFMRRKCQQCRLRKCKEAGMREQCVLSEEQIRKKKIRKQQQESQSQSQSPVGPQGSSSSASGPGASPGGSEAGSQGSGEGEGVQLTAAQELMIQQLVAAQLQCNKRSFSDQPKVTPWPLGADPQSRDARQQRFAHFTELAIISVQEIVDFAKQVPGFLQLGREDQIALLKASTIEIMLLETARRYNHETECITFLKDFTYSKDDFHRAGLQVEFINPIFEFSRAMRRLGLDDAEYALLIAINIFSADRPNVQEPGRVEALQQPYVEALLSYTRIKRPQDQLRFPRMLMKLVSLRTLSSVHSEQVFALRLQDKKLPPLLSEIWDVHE
Protocol: (§1) The activity of compounds 1–14 on GPBAR1 was evaluated in a luciferase reporter assay using HEK-293T cells transfected with GPBAR1. The efficacy of tested compounds (Table 1) was measured using taurolithocholic acid (TLCA) as GPBAR1 reference compound[10],[11]. Each compound was tested at the concentration of 10 μM and transactivation activity of TLCA on a cAMP responsive element (CRE) (i.e. TGR5/GPBAR1) was considered equal to 100%. […] Thus, 9 and 10 (Table 1) turned out to be the most promising derivatives considering their low EC50 values and high activity efficacy. To further characterize the pharmacological properties of these compounds, we expanded their in vitro profile to common off-targets for bile acid receptor ligands.
(§2) Figure 3 (A) Dose response curves of compounds 9 and 10 (concentrations ranging from 1 to 50 µM) in luciferase reporter assay. (B) Real-time PCR analysis of mRNA expression of Pro-glucagon in GLUTag cells treated with compounds 9 and 10 at 10 μM, and TLCA used as a positive control (10 μM). Values are normalized to GAPDH and are expressed relative to those of not treated cells (NT) which are arbitrarily settled to 1. The relative mRNA expression is expressed as 2^(−ΔΔCt). […]
(§3) The specificity of compounds 9 and 10 versus PPARα, PPARγ, LXRα, LXRβ, FXR and PXR was determined in luciferase reporter gene assays as previously reported[29],[31].

FXR = target: T2, FXR (Homo sapiens, UniProt Q96RI1); test: Luciferase reporter specificity assay versus FXR on HepG2 cells
T2 construct: host or cells: HepG2
T2 sequence (Q96RI1 1-486): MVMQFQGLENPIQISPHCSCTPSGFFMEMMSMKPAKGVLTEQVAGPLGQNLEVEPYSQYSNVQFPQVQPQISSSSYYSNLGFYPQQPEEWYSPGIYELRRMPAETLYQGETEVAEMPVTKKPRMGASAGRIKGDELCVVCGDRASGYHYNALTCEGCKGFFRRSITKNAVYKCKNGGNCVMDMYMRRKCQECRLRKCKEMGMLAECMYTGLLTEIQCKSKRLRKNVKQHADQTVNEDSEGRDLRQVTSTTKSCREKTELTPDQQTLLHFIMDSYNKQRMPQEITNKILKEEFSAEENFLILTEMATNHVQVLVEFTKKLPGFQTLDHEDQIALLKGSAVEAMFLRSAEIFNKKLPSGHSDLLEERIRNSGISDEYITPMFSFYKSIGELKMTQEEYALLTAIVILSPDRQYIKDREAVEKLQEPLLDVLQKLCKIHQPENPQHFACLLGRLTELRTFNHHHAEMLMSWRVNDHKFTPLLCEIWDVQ
Protocol: as §1, §2, §3

LXRα = target: T3, LXRα (Homo sapiens, UniProt Q13133); test: Luciferase reporter specificity assay versus LXRα on HepG2 cells
T3 construct: host or cells: HepG2
T3 sequence (Q13133 1-447): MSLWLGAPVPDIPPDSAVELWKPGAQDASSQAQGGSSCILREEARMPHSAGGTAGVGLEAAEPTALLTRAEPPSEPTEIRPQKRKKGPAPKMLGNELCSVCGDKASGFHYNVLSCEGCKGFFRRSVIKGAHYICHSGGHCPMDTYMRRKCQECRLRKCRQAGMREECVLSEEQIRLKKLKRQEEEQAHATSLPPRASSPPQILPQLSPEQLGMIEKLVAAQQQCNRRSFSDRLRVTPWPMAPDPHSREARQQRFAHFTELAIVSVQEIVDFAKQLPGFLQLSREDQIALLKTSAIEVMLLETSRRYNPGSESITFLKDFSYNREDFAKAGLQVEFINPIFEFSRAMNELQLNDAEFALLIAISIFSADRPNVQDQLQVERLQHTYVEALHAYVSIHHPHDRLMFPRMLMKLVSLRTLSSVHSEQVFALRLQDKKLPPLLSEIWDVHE
Protocol: as §1, §2, §3

PPARγ = target: T4, PPARγ (Homo sapiens, UniProt P37231); test: Luciferase reporter specificity assay versus PPARγ on HepG2 cells
T4 construct: host or cells: HepG2
T4 sequence (P37231 1-505): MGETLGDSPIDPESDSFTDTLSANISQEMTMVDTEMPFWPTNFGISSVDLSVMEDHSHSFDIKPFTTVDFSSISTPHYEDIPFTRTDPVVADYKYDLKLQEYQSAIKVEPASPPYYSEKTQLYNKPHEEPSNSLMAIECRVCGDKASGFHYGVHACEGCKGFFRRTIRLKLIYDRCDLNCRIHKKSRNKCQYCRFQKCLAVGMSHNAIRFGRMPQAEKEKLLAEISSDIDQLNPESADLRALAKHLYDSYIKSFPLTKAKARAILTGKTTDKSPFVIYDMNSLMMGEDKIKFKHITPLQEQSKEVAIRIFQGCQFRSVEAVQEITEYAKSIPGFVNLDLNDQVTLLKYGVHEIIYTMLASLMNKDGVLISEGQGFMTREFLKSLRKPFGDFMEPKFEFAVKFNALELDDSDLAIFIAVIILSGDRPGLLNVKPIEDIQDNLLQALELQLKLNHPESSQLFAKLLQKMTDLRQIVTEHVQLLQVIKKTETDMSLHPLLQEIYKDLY
Protocol: as §1, §2, §3

LXRβ transactivation (LXRβ) | FXR transactivation (FXR) | LXRα transactivation (LXRα) | PPARγ transactivation (PPARγ) | Structure (SMILES)
unable to induce | unable to induce | unable to induce | unable to induce | O=C(Nc1ccc(Cl)cc1)N[C@@H]1CN[C@H](c2nc(-c3ccccc3)no2)C1 [Compound 9]
unable to induce | unable to induce | unable to induce | unable to induce | O=C(NC1CCCCC1)N[C@@H]1CN[C@H](c2nc(-c3ccccc3)no2)C1 [Compound 10]
